Reference: patent publication US8530465B2, “1, 2-disubstituted amido-anthraquinone derivatives, preparation method and application thereof” (National Defense Medical Center, priority 2010, dated 2013)

Columns and labels:
Assay type in all cases: cell-based, human
[1] = MTT assay, PhTERT-SEAP (H1299); conditions: human, H1299 cells carrying the PhTERT-SEAP reporter, PhTERT-SEAP (H1299); for viability at 1 μM: Conc. 1 μM, read-out: Relative MTT viability (%); for viability at 10 μM: Conc. 10 μM; for viability at 10 μM / viability at 100 μM: read-out: Relative MTT viability (%) (converted); for viability at 100 μM: Conc. 100 μM
Procedure, shortened: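 Cultured cells received MTT for 4 h at 37 °C, then lysis buffer overnight at 37 °C. Optical density was read at 550 nm.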

K562 = test: NCI drug screen, K562; conditions: K562 (Leukemia); 1.00E−5 Molar
Method: (§1) In brief, cellular protein levels were determined after 48 hours of drug exposure by sulforhodamine B colorimetry. Through the use of a time 0 cell control, the cell growth can be determined for each cell line thus allowing calculations of the 50% growth inhibitory concentration (GI50), the total growth inhibition (TGI), and the 50% lethal concentration (LC50). Comparison to plates not exposed to drug permits determination of concentration and times of exposure conferring 50% net growth inhibition (GI50), TGI, and 50% cell kill (LC50).
(§2) The screening system in United State National Cancer Institute (NCI) is consisted of 60 kinds of different human cancer cells, which can be used to assay the growth-inhibiting ability or cell toxicity of a compound against various cancer and tumor at a certain concentration.

HOP-92 = test: NCI drug screen, HOP-92; conditions: HOP-92 (Non-Small Cell Lung Cancer); 1.00E−5 Molar
Method: as §1, §2

NCI-H23 = test: NCI drug screen, NCI-H23; conditions: NCI-H23 (Non-Small Cell Lung Cancer); 1.00E−5 Molar
Method: as §1, §2

NCI-H322M = test: NCI drug screen, NCI-H322M; conditions: NCI-H322M (Non-Small Cell Lung Cancer); 1.00E−5 Molar
Method: as §1, §2

HT29 = test: NCI drug screen, HT29; conditions: HT29 (Colon Cancer); 1.00E−5 Molar
Method: as §1, §2

SF-268 = test: NCI drug screen, SF-268; conditions: SF-268 (CNS Cancer); 1.00E−5 Molar
Method: as §1, §2

SF-295 = test: NCI drug screen, SF-295; conditions: SF-295 (CNS Cancer); 1.00E−5 Molar
Method: as §1, §2

SF-539 = test: NCI drug screen, SF-539; conditions: SF-539 (CNS Cancer); 1.00E−5 Molar
Method: as §1, §2

SNB-19 = test: NCI drug screen, SNB-19; conditions: SNB-19 (CNS Cancer); 1.00E−5 Molar
Method: as §1, §2

U251 = test: NCI drug screen, U251; conditions: U251 (CNS Cancer); 1.00E−5 Molar
Method: as §1, §2

M14 = test: NCI drug screen, M14; conditions: M14 (Melanoma); 1.00E−5 Molar
Method: as §1, §2

SK-MEL-2 = test: NCI drug screen, SK-MEL-2; conditions: SK-MEL-2 (Melanoma); 1.00E−5 Molar
Method: as §1, §2

SK-MEL-5 = test: NCI drug screen, SK-MEL-5; conditions: SK-MEL-5 (Melanoma); 1.00E−5 Molar
Method: as §1, §2

UACC-257 = test: NCI drug screen, UACC-257; conditions: UACC-257 (Melanoma); 1.00E−5 Molar
Method: as §1, §2

OVCAR-3 = test: NCI drug screen, OVCAR-3; conditions: OVCAR-3 (Ovarian Cancer); 1.00E−5 Molar
Method: as §1, §2

OVCAR-8 = test: NCI drug screen, OVCAR-8; conditions: OVCAR-8 (Ovarian Cancer); 1.00E−5 Molar
Method: as §1, §2

786-0 = test: NCI drug screen, 786-0; conditions: 786-0 (Renal Cancer); 1.00E−5 Molar
Method: as §1, §2

DU145 = test: NCI drug screen, DU145; conditions: DU145 (Prostate Cancer); 1.00E−5 Molar
Method: as §1, §2

PC-3 = test: NCI drug screen, PC-3; conditions: PC-3 (Prostate Cancer); 1.00E−5 Molar
Method: as §1, §2

T-47D = test: NCI drug screen, T-47D; conditions: T-47D (Breast Cancer); 1.00E−5 Molar
Method: as §1, §2

EKVX = test: NCI drug screen, EKVX; conditions: EKVX (Non-Small Cell Lung Cancer); 1.00E−5 Molar
Method: as §1, §2

MDA-MB-435 = test: NCI drug screen, MDA-MB-435; conditions: MDA-MB-435 (Melanoma); 1.00E−5 Molar
Method: as §1, §2

| SMILES | viability at 1 μM [1] [%] | viability at 10 μM [1] [%] | viability at 100 μM [1] [%] | Growth Percent (HOP-92) [%] | Growth Percent (NCI-H23) [%] | Growth Percent (NCI-H322M) [%] | Growth Percent (HT29) [%] | Growth Percent (SF-268) [%] | Growth Percent (SF-295) [%] | Growth Percent (SF-539) [%] | Growth Percent (SNB-19) [%] | Growth Percent (U251) [%] | Growth Percent (M14) [%] | Growth Percent (SK-MEL-2) [%] | Growth Percent (SK-MEL-5) [%] | Growth Percent (OVCAR-3) [%] | Growth Percent (OVCAR-8) [%] | Growth Percent (786-0) [%] | Growth Percent (DU145) [%] | Growth Percent (PC-3) [%] | further results |
| --- | --- | --- | --- | --- | --- | --- | --- | --- | --- | --- | --- | --- | --- | --- | --- | --- | --- | --- | --- | --- | --- |
| Cc1ccc(C(=O)Nc2ccc3c(c2NC(=O)c2ccc(C)cc2)C(=O)c2ccccc2C3=O)cc1 [CC-04, 1,2-bis-(4-methylbenzamido)-anthraquinone] | 100 ± 4.4 | 117 | 62 | 91.21 | 90.57 | 97.74 | 99.39 | 98.91 | 110.81 | 97.26 | 103.91 | 91.73 | 91.57 | 100.65 | 94.04 | 97.90 | 85.43 | 116.17 | 95.93 | 82.91 | Growth Percent (K562): 107.54%; Growth Percent (UACC-257): 98.46%; Growth Percent (T-47D): 100.00% |
| Cc1ccc(C(=O)Nc2c(NC(=O)CCl)ccc3c2C(=O)c2ccccc2C3=O)cc1 [CC-12, 1-(4-methylbenzamido)-2-(chloroacetamido)-anthraquinone] | 104 ± 7.83 | 2.77 | – | −68.77 | −85.89 | 95.05 | 3.37 | 14.63 | 79.70 | −31.42 | 88.40 | −44.02 | −22.68 | 52.00 | −98.72 | −92.86 | 8.72 | 11.30 | −97.56 | 6.81 | Growth Percent (EKVX): 88.22%; Growth Percent (MDA-MB-435): 4.82%; Growth Percent (T-47D): −49.46% |
| O=C(CCl)Nc1ccc2c(c1NC(=O)Cc1ccccc1)C(=O)c1ccccc1C2=O [CC-23, 1-[2-(phenyl)acetylamino]-2-(chloroacetamido)-anthraquinone] | 82 ± 1.79 | 5.94 | 3.98 | 73.63 | 64.75 | 104.38 | 88.84 | 80.14 | 98.48 | 107.09 | 124.27 | 66.17 | 87.10 | −6.49 | 51.32 | 86.38 | – | 97.26 | 85.83 | – | Growth Percent (EKVX): 102.08%; Growth Percent (MDA-MB-435): 80.40% |
| Cc1ccc(C(=O)Nc2c(NC(=O)CN3CCCC3)ccc3c2C(=O)c2ccccc2C3=O)cc1 [CC-38, 1-(4-methylbenzamido)-2-[2-(tetrahydro-1H-1-pyrrolyl)acetylamino]-anthra quinone] | 88.2 ± 4.94 | 69 | 5.05 | 59.33 | 73.29 | 82.50 | 31.34 | 86.17 | 68.97 | 81.29 | 108.22 | 82.17 | 88.01 | 102.17 | 61.74 | 77.82 | 65.02 | 65.15 | 91.52 | 75.00 | Growth Percent (K562): 40.86%; Growth Percent (EKVX): 65.93%; Growth Percent (MDA-MB-435): 79.14%; Growth Percent (UACC-257): 92.83%; Growth Percent (T-47D): 44.33% |
| Cc1ccc(C(=O)Nc2c(NC(=O)CN3CCN(C)CC3)ccc3c2C(=O)c2ccccc2C3=O)cc1 [CC-43, 1-(4-methylbenzamido)-2-[2-(4-methylpiperazino)acetylamino]-anthraquinone] | 78.8 ± 3.47 | 29.5 | 8.11 | 90.68 | 89.52 | 72.60 | 3.69 | 59.11 | 89.86 | 62.68 | 68.75 | 22.38 | −60.04 | 123.64 | 41.30 | −6.15 | 46.43 | 11.90 | 82.12 | 84.75 | Growth Percent (K562): −4.52%; Growth Percent (EKVX): 78.07%; Growth Percent (MDA-MB-435): 11.15%; Growth Percent (UACC-257): −50.95%; Growth Percent (T-47D): 52.62% |
